Data published in patent US20110150769A1, “IDENTIFICATION AND USE OF COMPOUNDS FOR TREATING PERSISTENT PAIN” (priority 2009, published 2011).
“Also recorded” adds a separate entry of the source.

Experiments:
[1] = system: chronic constriction injury model of neuropathic pain in mice; assay: CCI-induced mechanical allodynia (von Frey test) after intrathecal injection; format: in vivo, mouse; details: 0.5 mM, 5 μl i.th.
Source text: A chronic constriction injury (CCI) at the left sciatic nerve was induced in adult male mice. Inhalation anesthesia was induced with a constant level of isoflurane (2.0%) delivered through a nose cone. Under aseptic conditions, the left sciatic nerve at the middle thigh level was separated from the surrounding tissue and loosely tied with three nylon sutures (9-0 nonabsorbable-monofilament, S&T AG, Neuhausen, Switzerland). The distance between two adjacent ligatures was around 0.5 mm.
CCI-induced mechanical allodynia: mechanical sensitivity was assessed with the von Frey test using the frequency method. Two calibrated von Frey monofilaments (low force: 0.07 g and high force: 0.45 g) were used. Each von Frey filament was applied perpendicularly to the plantar side of each hind paw for approximately 1 sec; the stimulation was repeated 10 times to both hind paws. The occurrence of paw withdrawal in each of these 10 trials was expressed as a percent response frequency: paw withdrawal frequency (PWF)=(number of paw withdrawals/10 trials)×100%.
BAM 8-22 was purchased from Tocris (Bristol, UK) and was suspended in 0.9% saline. The drug was injected intrathecally under brief isoflurane (1.5%) anesthesia to reduce stress. […]

human MrgprX1 = human MrgprX1 (Homo sapiens, UniProt Q96LB2); details: literature; cited from earlier work
Chain of human MrgprX1 (Q96LB2 whole entry): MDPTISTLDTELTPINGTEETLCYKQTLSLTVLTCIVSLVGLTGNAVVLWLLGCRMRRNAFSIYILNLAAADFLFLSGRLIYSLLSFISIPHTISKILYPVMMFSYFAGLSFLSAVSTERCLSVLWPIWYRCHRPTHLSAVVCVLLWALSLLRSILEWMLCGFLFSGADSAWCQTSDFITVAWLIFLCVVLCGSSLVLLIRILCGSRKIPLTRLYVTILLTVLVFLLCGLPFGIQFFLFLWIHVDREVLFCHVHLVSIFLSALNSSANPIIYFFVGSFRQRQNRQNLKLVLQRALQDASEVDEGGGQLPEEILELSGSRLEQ

rat MrgprC = target: T1, rat MrgprC (Rattus norvegicus, UniProt Q8R4G1); details: Han et al, 2002, Lembo et al.; cited from earlier work
T1 sequence (Q8R4G1 1-323): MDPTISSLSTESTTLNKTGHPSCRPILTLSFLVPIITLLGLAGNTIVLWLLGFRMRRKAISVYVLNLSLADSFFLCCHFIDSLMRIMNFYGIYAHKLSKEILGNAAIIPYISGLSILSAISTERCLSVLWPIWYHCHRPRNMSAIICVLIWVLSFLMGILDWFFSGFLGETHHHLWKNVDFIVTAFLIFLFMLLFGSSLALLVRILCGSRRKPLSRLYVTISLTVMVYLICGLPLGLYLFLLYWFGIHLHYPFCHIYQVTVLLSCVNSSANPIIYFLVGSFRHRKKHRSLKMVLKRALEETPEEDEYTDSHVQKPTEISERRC

mouse MrgprC11 = target: T2, mouse MrgprC11 (Mus musculus, UniProt Q8CIP3); details: Han et al, 2002, Lembo et al.; cited from earlier work
T2 sequence (Q8CIP3 1-322): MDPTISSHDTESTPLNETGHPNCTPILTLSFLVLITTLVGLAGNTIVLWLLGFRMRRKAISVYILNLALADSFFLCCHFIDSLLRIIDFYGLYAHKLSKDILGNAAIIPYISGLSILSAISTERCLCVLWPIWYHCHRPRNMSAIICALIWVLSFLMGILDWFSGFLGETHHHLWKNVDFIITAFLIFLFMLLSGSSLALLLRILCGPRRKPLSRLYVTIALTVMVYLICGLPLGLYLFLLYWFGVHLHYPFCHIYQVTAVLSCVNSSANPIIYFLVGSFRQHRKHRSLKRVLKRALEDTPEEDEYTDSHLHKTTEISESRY

In the case of BAM 8-22, the “CCI-induced mechanical pain hypersensitivity (paw withdrawal frequency), ipsilateral hind paw” value ([1]; WT mice, low-force 0.07 g and high-force 0.45 g, 14-18 days post-injury, after 30 min) is given as “significantly attenuated; also recorded: significantly reduced”, the “paw withdrawal responses (PWF) of the contralateral, uninjured side” value ([1]; either group) is given as “did not significantly change; also recorded: did not significantly reduce” and the “activation of human MrgprX1” value (human MrgprX1) is given as “specifically activates”. The “activation of rat MrgprC” value (rat MrgprC) was “specifically activates” and the “activation of mouse MrgprC11” value (mouse MrgprC11) was “specifically activates”.
